Values after ≈ are worked out from the molar mass of the structure shown.
Tests used:
[1] = tested on: Streptococcus pyogenes IID 692; test: Antibacterial activity in vitro, M.I.C., agar dilution streak method; type: cell-based; details: Gram +
[2] = tested on: Pr. vulgaris XK Denken; test: as above; type: cell-based, Proteus vulgaris; details: Gram -
[3] = tested on: Escherichia coli NIHJ; test: as above; type: cell-based
[4] = tested on: Ps. aeruginosa IID 1210; test: as above; type: cell-based, Pseudomonas aeruginosa; details: Gram -
[5] = tested on: Str. faecalis IID 682; test: as above; type: cell-based; details: Gram +
[6] = tested on: Diplococcus pneumoniae IID 552; test: as above; type: cell-based; details: Gram +
[7] = tested on: Ps. aeruginosa IID 1130; test: as above; type: cell-based, Pseudomonas aeruginosa; details: Gram -
[8] = tested on: Ps. aeruginosa IFO 12689; test: as above; type: cell-based, Pseudomonas aeruginosa; details: Gram -
[9] = tested on: Staphylococcus aureus 209P; test: as above; type: cell-based; details: Gram +
[10] = tested on: Klebsiella pneumoniae IFO 3512; test: as above; type: cell-based
[11] = tested on: Mycobacterium phlei IFO 3142; test: as above; type: cell-based; details: Gram +
[12] = tested on: E. coli ATCC 10536; test: as above; type: cell-based, Escherichia coli
[13] = tested on: Neisseria perflava IID 856; test: as above; type: cell-based
[14] = tested on: Haemophilus influenzae IID 986; test: as above; type: cell-based; details: Gram -
[15] = tested on: Shigella sonnei IID 969; test: as above; type: cell-based; details: Gram -
[16] = tested on: Bacillus subtilis PCI 219; test: as above; type: cell-based; details: Gram +
[17] = tested on: Sta. aureus ATCC 14775; test: as above; type: cell-based, Staphylococcus aureus; details: Gram +
[18] = tested on: Pseudomonas aeruginosa V-1; test: as above; type: cell-based; details: Gram -
[19] = tested on: Corynebacterium pyogenes IID 548; test: as above; type: cell-based; details: Gram +
[20] = tested on: Salmonella enteritidis IID 604; test: as above; type: cell-based; details: Gram -
[21] = tested on: Str. pyogenes S-8; test: as above; type: cell-based, Streptococcus pyogenes; details: Gram +
[22] = tested on: My. smegmatis IFO 3083; test: as above; type: cell-based; details: Gram +
[23] = tested on: Proteus vulgaris IFO 3167; test: as above; type: cell-based; details: Gram -
[24] = tested on: Escherichia coli NIHJ JC-2; test: Preventive effect against ascending kidney infection in mice with Escherichia coli; type: in vivo, Escherichia coli; mice (ddY, female); details: Escherichia coli, NIHJJC2, 48 h, oral, 3 hours after inoculation, challenge 3.2 × 10^7 cells/mouse
Protocol: Ascending kidney infection was induced in female mice (strain: ddY, 6 weeks old, body weight: 22-26g), by instilling Escherlichia coli NIHJ JC-2 suspended in 0.04 ml of Tryptosoya broth (Nissan) into the urinary tract of mice anesthetized with sodium pentobarbital and by holding for 6 hours the mice in plastic tubes (diameter 25 mm) and clamping the outlet of urinary tract.
Each of these test material was orally administered 3 hours after inoculation. Mice were sacrificed 48 hours after inoculation. Kidneys were removed aseptically and bisected, and the two halves were pressed and streaked on agar plate containing Desoxycholate medium (Nissan). The therapeutic effect of each compound was evaluated from the absence of growth on the agar surface after 20 hours of incubation at 37° C.

[25] = tested on: Pseudomonas aeruginosa IID 1210; test: Preventive effect against systemic infection with Pseudomonas aeruginosa in mice; type: in vivo, Pseudomonas aeruginosa; mice (ddY, male); details: Pseudomonas aeruginosa, IID1210, oral, challenge 3.5 × 10^4 cells/mouse
Protocol: Systemic infection was produced by inoculating male mice (strain: ddY, 6 weeks old, body weight: 28-33g) in intraperitoneally with Pseudomonas aeruginosa IID 1210 suspended in 0.5 ml of Brain heart infusion broth (Eiken) containing 5% mucin. […] Each of these test materials was administered to the mice twice, immediately after and then 6 hours after the inoculation, and the therapeutic effect of each compounds was judged from the survival rate.
(1) Miller L. C. and M. L. Tainter: Estimation of the ED50 and its error by means of logarithmic-probit graph paper Proc. Soc. Exp. Biol. Med. 57 261-264 (1944)
(2) Litchfield J. T. and F. Wilcoxon: A simplified method of evaluating dose - effect J. Pharmacol. 92 99-113 (1948)

[26] = tested on: Escherichia coli NIHJ JC-2; test: Influence of rat bile on antibacterial activity; type: cell-based; details: bile of rats
Protocol: Nutrient agar was heated and melted. […] The diameter of the inhibition zone was measured.

[27] = Biliary excretion in rats after a single oral administration of 50 mg/kg; details: rat, in vivo, po, 50 mg/kg
[28] = tested on: gram-positive and gram-negative bacteria including Pseudomonas aeruginosa; test: Antibacterial spectrum in vitro (summary in words); type: cell-based
[29] = tested on: Escherichia coli; test: Concentration ratio in serum to M.I.C. after oral administration of 50 mg/kg in rats; type: in vivo, Escherichia coli; rats; details: rat, in vivo, po, 50 mg/kg

Gentamicin
M.I.C. [1]: 6.25 µg/mL
M.I.C. [2]: 0.10 µg/mL
M.I.C. ([3]; Gram -): 0.39 µg/mL
M.I.C. [4]: 12.5 µg/mL
M.I.C. [5]: 50 µg/mL
M.I.C. [6]: 12.5 µg/mL
M.I.C. [7]: 3.13 µg/mL
M.I.C. [8]: 12.5 µg/mL
M.I.C. [9]: 0.10 µg/mL
M.I.C. ([10]; Gram -): 0.20 µg/mL
M.I.C. [11]: 6.25 µg/mL
M.I.C. ([12]; Gram -): 0.39 µg/mL
M.I.C. ([13]; Gram -): 0.78 µg/mL
M.I.C. [14]: 1.56 µg/mL
M.I.C. [15]: 0.78 µg/mL
M.I.C. [16]: 0.10 µg/mL
M.I.C. [17]: 0.10 µg/mL
M.I.C. [18]: 0.78 µg/mL
M.I.C. [19]: 0.78 µg/mL
M.I.C. [20]: 1.56 µg/mL
M.I.C. [21]: 6.25 µg/mL
M.I.C. [22]: 0.20 µg/mL
M.I.C. [23]: 0.20 µg/mL

CCn1cc(C(=O)O)c(=O)c2cnc(N3CCNCC3)nc21 [Pipemidic acid]
MIC ([1]; Streptococcus pyogenes, IID692, read-out: M.I.C.): > 100 mg/L
MIC ([2]; Proteus vulgaris, read-out: M.I.C.): 6.25 mg/L (≈ 20.6 µM)
MIC ([3]; Escherichia coli): 1.56 mg/L (≈ 5.14 µM)
ED50 ([24]; read-out: ED50 (95% confidence limit)): 74 mg/kg
ED90 ([24]; read-out: ED90): 235 mg/kg
MIC ([4]; Pseudomonas aeruginosa, IID1210, read-out: M.I.C.): 50 mg/L (≈ 165 µM)
MIC ([6]; Streptococcus pneumoniae, IID552, read-out: M.I.C.): > 100 mg/L
ED50 ([25]; twice (immediately and 6 hours after inoculation), read-out: ED50 (95% confidence limit)): 400 mg/kg
ED90 ([25]; twice, read-out: ED90): 1120 mg/kg
MIC ([7]; Pseudomonas aeruginosa, IID1130, read-out: M.I.C.): 25 mg/L (≈ 82.4 µM)
MIC ([8]; Pseudomonas aeruginosa, IFO12689, read-out: M.I.C.): 25 mg/L (≈ 82.4 µM)
antibacterial activity in presence of bile (in words) [26]: not influenced by bile of rats
concentration at 3 h [27]: 27.4 ± 2.6 µg/mL
concentration at 6 h [27]: 22.6 ± 1.7 µg/mL
concentration at 24 h [27]: 10.2 ± 1.2 µg/mL
concentration at 27 h [27]: < 2 µg/mL
dose excreted at 3 h [27]: 0.6 ± 0.07%
dose excreted at 6 h [27]: 1.01 ± 0.1%
dose excreted at 24 h [27]: 1.97 ± 0.09%
dose excreted at 27 h [27]: 1.97 ± 0.09%
MIC ([9]; Staphylococcus aureus, 209P, read-out: M.I.C.): 25 mg/L (≈ 82.4 µM)
MIC ([10]; Klebsiella pneumoniae, IFO3512): 1.56 mg/L (≈ 5.14 µM)
MIC ([11]; Mycolicibacterium phlei, IFO3142, read-out: M.I.C.): 12.5 mg/L (≈ 41.2 µM)
MIC ([12]; Escherichia coli, ATCC10536): 1.56 mg/L (≈ 5.14 µM)
MIC ([13]; Neisseria perflava, IID856): 1.56 mg/L (≈ 5.14 µM)
antibacterial activity (in words) [28]: inactive on many strains of gram-positive bacteria and many Pseudomonas aeruginosa strains
MIC ([14]; Haemophilus influenzae, IID986, read-out: M.I.C.): 3.13 mg/L (≈ 10.3 µM)
MIC ([15]; Shigella sonnei, IID969): 1.56 mg/L (≈ 5.14 µM)
MIC ([16]; Bacillus subtilis, PCI219, read-out: M.I.C.): 6.25 mg/L (≈ 20.6 µM)
MIC ([17]; Staphylococcus aureus, ATCC14775, read-out: M.I.C.): 100 mg/L (≈ 330 µM)
MIC ([18]; Pseudomonas aeruginosa, V1, read-out: M.I.C.): 12.5 mg/L (≈ 41.2 µM)
MIC ([19]; Corynebacterium pyogenes, IID548): 100 mg/L
MIC ([20]; Salmonella enterica, read-out: M.I.C.): 12.5 mg/L (≈ 41.2 µM)
MIC ([21]; Streptococcus pyogenes, S8, read-out: M.I.C.): > 100 mg/L
serum concentration / M.I.C. ratio (in words) [29]: smaller than that of the compound (II)
time for which serum levels were maintained [29]: ≤ 2 h
MIC ([22]; Mycolicibacterium smegmatis, IFO3083, read-out: M.I.C.): 50 mg/L (≈ 165 µM)
MIC ([23]; Proteus vulgaris, IFO3167, read-out: M.I.C.): 3.13 mg/L (≈ 10.3 µM)
